Results as given in US20250312352A1, “GLP-1R MODULATING COMPOUNDS” (Gilead Sciences, Inc., priority 2021, published 2025).

Biological target: T1, GLP-1R (Homo sapiens, UniProt P43220)
T1 construct: host or cells: CHO cells
Assay: GLP-1R activation cAMP assay (Assay 1 or Assay 2)
Format: cell-based
Conditions: cAMP increase in CHO cells stably expressing GLP-1R; compounds run on one of the two cAMP assays
Procedure, shortened: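 CHO cells stably expressing human GLP-1R were incubated 1 h in HBSS/20 mM HEPES/0.1% BSA, then exposed to 10-point agonist dilutions for 30 min at 37 °C. cAMP increase was measured with an HTRF Gs dynamic kit; EC50 from sigmoidal fit of response versus log concentration.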

T1 sequence (P43220 24-463): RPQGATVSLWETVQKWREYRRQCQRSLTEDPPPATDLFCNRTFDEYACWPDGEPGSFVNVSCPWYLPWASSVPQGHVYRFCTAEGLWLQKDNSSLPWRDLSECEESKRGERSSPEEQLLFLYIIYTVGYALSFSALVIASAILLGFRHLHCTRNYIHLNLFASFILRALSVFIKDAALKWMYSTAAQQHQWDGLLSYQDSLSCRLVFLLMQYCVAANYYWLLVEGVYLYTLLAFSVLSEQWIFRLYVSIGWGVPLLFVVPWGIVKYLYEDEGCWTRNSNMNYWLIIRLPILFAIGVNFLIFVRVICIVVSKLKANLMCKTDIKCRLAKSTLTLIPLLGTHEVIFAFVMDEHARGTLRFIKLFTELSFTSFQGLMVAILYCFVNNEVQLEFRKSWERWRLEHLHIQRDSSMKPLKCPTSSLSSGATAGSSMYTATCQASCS

| SMILES | EC50 [nM] |
| --- | --- |
| CCOc1nnc(COc2cccc(-c3cc(F)c(Cc4nc5ccc(C(=O)O)cc5n4CC4(CF)CC4)cc3F)n2)s1 [Example 266, 2-(4-(6-((5-ethoxy-1,3,4-thiadiazol-2-yl)methoxy)pyridin-2-yl)-2,5-difluorobenzyl)-1-((1-(fluoromethyl)cyclopropyl)methyl)-1H-benzo[d]imidazole-6-carboxylic acid] | 0.367 |
| CC1(C)COC[C@H]1n1c(Cc2cc(F)c(-c3ccnc(OCc4sc(C#N)cc4F)n3)cc2F)nc2ccc(C(=O)O)cc21 [Example 267, 2-[[4-[2-[(5-cyano-3-fluoro-2-thienyl)methoxy]pyrimidin-4-yl]-2,5-difluoro-phenyl]methyl]-3-[(3S)-4,4-dimethyltetrahydrofuran-3-yl]benzimidazole-5-carboxylic acid] | 0.401 |
| COc1nnc(COc2nc(-c3cc(F)c(Cc4nc5ccc(C(=O)O)cc5n4CC4(CF)CC4)cc3F)ccc2F)s1 [Example 268, 2-(2,5-difluoro-4-(5-fluoro-6-((5-methoxy-1,3,4-thiadiazol-2-yl)methoxy)pyridin-2-yl)benzyl)-1-((1-(fluoromethyl)cyclopropyl)methyl)-1H-benzo[d]imidazole-6-carboxylic acid] | 0.762 |
| COc1nnc(COc2cccc(-c3cc(F)c(Cc4nc5ccc(C(=O)O)cc5n4CC4(CF)CC4)c(F)c3F)n2)s1 [Example 271, 1-((1-(fluoromethyl)cyclopropyl)methyl)-2-(2,3,6-trifluoro-4-(6-((5-methoxy-1,3,4-thiadiazol-2-yl)methoxy)pyridin-2-yl)benzyl)-1H-benzo[d]imidazole-6-carboxylic acid] | 0.897 |
| COc1nnc(COc2cccc(-c3cc(F)c(Cc4nc5ccc(C(=O)O)cc5n4CC4(CF)CC4)cc3F)n2)s1 [Example 272, 2-(2,5-difluoro-4-(6-((5-methoxy-1,3,4-thiadiazol-2-yl)methoxy)pyridin-2-yl)benzyl)-1-((1-(fluoromethyl)cyclopropyl)methyl)-1H-benzo[d]imidazole-6-carboxylic acid] | 1.9 |
| COc1nnc(COc2cccc(-c3cc(F)c(Cc4nc5c(F)cc(C(=O)O)cc5n4CC4(C(F)F)CC4)cc3F)n2)s1 [Example 275, 2-(2,5-difluoro-4-(6-((5-methoxy-1,3,4-thiadiazol-2-yl)methoxy)pyridin-2-yl)benzyl)-1-((1-(difluoromethyl)cyclopropyl)methyl)-4-fluoro-1H-benzo[d]imidazole-6-carboxylic acid] | 0.372 |
| COc1nnc(COc2cccc(-c3cc(F)c(Cc4nc5ccc(C(=O)O)cc5n4CC4(C(F)F)CC4)cc3F)n2)s1 [Example 276, 2-(2,5-difluoro-4-(6-((5-methoxy-1,3,4-thiadiazol-2-yl)methoxy)pyridin-2-yl)benzyl)-1-((1-(difluoromethyl)cyclopropyl)methyl)-1H-benzo[d]imidazole-6-carboxylic acid] | 1.31 |
| COc1ncc(C#Cc2ccc(COc3cccc(-c4cc(F)c(Cc5nc6ccc(C(=O)O)cc6n5C[C@@H]5CCO5)cc4F)n3)c(F)n2)s1 [Example 277, (S)-2-(2,5-difluoro-4-(6-((2-fluoro-6-((2-methoxythiazol-5-yl)ethynyl)pyridin-3-yl)methoxy)pyridin-2-yl)benzyl)-1-(oxetan-2-ylmethyl)-1H-benzo[d]imidazole-6-carboxylic acid] | 0.312 |
| Cn1nncc1C#Cc1ccc(COc2cccc(-c3cc(F)c(Cc4nc5ccc(C(=O)O)cc5n4C[C@@H]4CCO4)cc3F)n2)c(F)n1 [Example 278, (S)-2-(2,5-difluoro-4-(6-((2-fluoro-6-((1-methyl-1H-1,2,3-triazol-5-yl)ethynyl)pyridin-3-yl)methoxy)pyridin-2-yl)benzyl)-1-(oxetan-2-ylmethyl)-1H-benzo[d]imidazole-6-carboxylic acid] | 0.617 |
| Cn1nncc1C#Cc1ccc(COc2cccc(-c3cc(F)c(Cc4nc5ccc(C(=O)O)cc5n4C4COCC4(C)C)cc3F)n2)c(F)c1 (centres unmarked) [Example 279, 2-(2,5-difluoro-4-(6-((2-fluoro-4-((1-methyl-1H-1,2,3-triazol-5-yl)ethynyl)benzyl)oxy)pyridin-2-yl)benzyl)-1-(4,4-dimethyltetrahydrofuran-3-yl)-1H-benzo[d]imidazole-6-carboxylic acid] | 0.955 |

The next lines start with the values.

| EC50 [nM] | SMILES |
| --- | --- |
| 0.152 | CCOc1nnc(COc2nc(-c3cc(F)c(Cc4nc5ccc(C(=O)O)cc5n4[C@@H]4COCC4(C)C)c(F)c3F)ccc2F)s1 [Example 265, (S)-1-(4,4-dimethyltetrahydrofuran-3-yl)-2-(4-(6-((5-ethoxy-1,3,4-thiadiazol-2-yl)methoxy)-5-fluoropyridin-2-yl)-2,3,6-trifluorobenzyl)-1H-benzo[d]imidazole-6-carboxylic acid] |
| 0.191 | COc1nnc(COc2nc(-c3cc(F)c(Cc4nc5ccc(C(=O)O)cc5n4[C@@H]4COCC4(C)C)c(F)c3F)ccc2F)s1 [Example 270, (S)-1-(4,4-dimethyltetrahydrofuran-3-yl)-2-(2,3,6-trifluoro-4-(5-fluoro-6-((5-methoxy-1,3,4-thiadiazol-2-yl)methoxy)pyridin-2-yl)benzyl)-1H-benzo[d]imidazole-6-carboxylic acid] |
| 0.144 | COc1nnc(COc2cccc(-c3cc(F)c(Cc4nc5ccc(C(=O)O)cc5n4[C@@H]4COCC4(C)C)c(F)c3F)n2)s1 [Example 273, (S)-1-(4,4-dimethyltetrahydrofuran-3-yl)-2-(2,3,6-trifluoro-4-(6-((5-methoxy-1,3,4-thiadiazol-2-yl)methoxy)pyridin-2-yl)benzyl)-1H-benzo[d]imidazole-6-carboxylic acid] |
| 0.196 | Cn1cc(C#Cc2cnc(COc3cccc(-c4cc(F)c(Cc5nc6c(F)cc(C(=O)O)cc6n5CC5(CF)CC5)cc4F)n3)c(F)c2)cn1 [Example 274, 2-(2,5-difluoro-4-(6-((3-fluoro-5-((1-methyl-1H-pyrazol-4-yl)ethynyl)pyridin-2-yl)methoxy)pyridin-2-yl)benzyl)-4-fluoro-1-((1-(fluoromethyl)cyclopropyl)methyl)-1H-benzo[d]imidazole-6-carboxylic acid] |
| 0.067 | COc1nnc(COc2cccc(-c3cc(F)c(Cc4nc5c(F)cc(C(=O)O)cc5n4CC4(CF)CC4)c(F)c3F)n2)s1 [Example 280, 4-fluoro-1-((1-(fluoromethyl)cyclopropyl)methyl)-2-(2,3,6-trifluoro-4-(6-((5-methoxy-1,3,4-thiadiazol-2-yl)methoxy)pyridin-2-yl)benzyl)-1H-benzo[d]imidazole-6-carboxylic acid] |
| 0.311 | COc1nnc(COc2cccc(-c3cc(F)c(Cc4nc5ccc(C(=O)O)cc5n4C4COCC4(C)C)c(F)c3F)n2)s1 (centres unmarked) [Example 282, 1-(4,4-dimethyltetrahydrofuran-3-yl)-2-(2,3,6-trifluoro-4-(6-((5-methoxy-1,3,4-thiadiazol-2-yl)methoxy)pyridin-2-yl)benzyl)-1H-benzo[d]imidazole-6-carboxylic acid] |
| 0.109 | Cc1nnc(COc2cccc(-c3cc(F)c(Cc4nc5c(F)cc(C(=O)O)cc5n4[C@@H]4COCC4(C)C)cc3F)n2)s1 [Example 283, (S)-2-(2,5-difluoro-4-(6-((5-methyl-1,3,4-thiadiazol-2-yl)methoxy)pyridin-2-yl)benzyl)-1-(4,4-dimethyltetrahydrofuran-3-yl)-4-fluoro-1H-benzo[d]imidazole-6-carboxylic acid] |
